Target: T1, hGRK-2 (Homo sapiens, UniProt P25098)
T1 sequence (P25098 1-689): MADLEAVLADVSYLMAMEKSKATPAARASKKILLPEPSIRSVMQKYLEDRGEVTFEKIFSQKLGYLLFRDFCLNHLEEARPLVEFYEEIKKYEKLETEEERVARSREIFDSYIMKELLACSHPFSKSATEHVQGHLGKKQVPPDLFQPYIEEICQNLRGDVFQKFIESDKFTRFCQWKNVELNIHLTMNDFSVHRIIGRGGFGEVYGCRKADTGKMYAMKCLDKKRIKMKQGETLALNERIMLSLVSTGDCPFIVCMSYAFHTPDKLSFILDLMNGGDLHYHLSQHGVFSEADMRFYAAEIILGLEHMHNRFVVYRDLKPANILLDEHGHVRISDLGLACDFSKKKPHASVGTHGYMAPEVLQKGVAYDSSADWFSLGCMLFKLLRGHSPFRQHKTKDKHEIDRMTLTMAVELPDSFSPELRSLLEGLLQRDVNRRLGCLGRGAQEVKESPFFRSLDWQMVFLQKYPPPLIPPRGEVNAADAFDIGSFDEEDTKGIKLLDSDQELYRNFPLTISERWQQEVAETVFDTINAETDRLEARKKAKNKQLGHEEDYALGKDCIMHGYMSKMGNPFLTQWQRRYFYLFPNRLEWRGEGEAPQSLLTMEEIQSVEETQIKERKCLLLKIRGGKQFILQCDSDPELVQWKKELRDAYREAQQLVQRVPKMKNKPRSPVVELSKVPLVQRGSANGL
Experiment: luciferase-based (Kinase-Glo) biochemical kinase inhibition assay, hGRK-2
Conditions: luciferase assay, casein substrate, 10 μM ATP; read-out: GRK-2 inhibition, Ki class
Procedure: The inhibition of G-protein-coupled receptor kinases including hGRK-2 was determined for the hydrazide compounds using a biochemical assay. The inhibition of GRK-3, GRK-5 and GRK-6 was also determined using the same assay for some of the hydrazide derivatives.
The protein kinase inhibition was determined using a biochemical assay utilizing the light emission of a luciferase reaction. The luciferase-based assay operates on the following reaction principles: [drawing 10]
An inhibitor of GRK-2 will increase in the amount of ATP in solution, as shown. Thus, an inhibitor of GRK-2 will drive the luciferase reaction to the right, resulting in more light emitted. The amount of light emitted is proportional to the inhibition resulting from the GRK-2 inhibitor. The luciferase-based assay was also used to test some of the hydrazides for the inhibition properties towards other kinases.
The test procedure was as follows:
• 50 mM HEPES, pH 7.5 • 10 mM MgCl2 • 100 μM activated sodium orthovanadate • 0.01% CHAPS • 0.1% BSA • 1 mM DTT (added fresh daily) 10× Assay Buffer Stock: • 500 mM HEPES, pH 7.5 • 100 mM MgCl2 • 1 mM activated sodium orthovanadate • 0.1% CHAPS • 1% BSA (leave out for 10× compound dilution buffer) Final Assay Conditions: • 50 μM test compound • 20 μM casein • 10 μM ATP • 50 nM hGRK2 • 4.5% DMSO • 90-120 minute incubation
Stopped by addition of 30 μl 3×-diluted Kinase-Glo reagent containing 0.01% trypan blue. Counted on FUSION plate reader.
Compound Dilution and Transfer
Prepare sufficient buffer containing 40% DMSO to add 20 μl/well to the number of plates being assayed. This buffer should not contain BSA because it will precipitate with addition of 40% DMSO. (EXAMPLE: To make 3000 ml compound dilution buffer: 1200 ml DMSO, 180 ml 10× compound dilution buffer, 1615 ml ultrapure water, 3 ml 1M DTT.).
Using Multidrop, add 20 μl of compound dilution buffer to all wells of the 384-well daughter plate (add 1 μl DMSO to control wells). This will result in a daughter plate which contains 21 μl of ˜500 μM test compound.
Using the PlateTrak, transfer 5 μl of the test compounds to a 384-well, non-binding, white microtiter plate.
Prepare sufficient volume of buffer (with BSA and 1 mM DTT) containing 125 nM GRK2 and 25 μM ATP. (Example: To 219 ml of buffer was added 550 μl 10 mM ATP and 350 μl 79 μM GRK2).
Using Multidrop, add 20 μl of GRK2/ATP mixture to all wells of the microtiter plate.
Prepare sufficient volume of buffer (with BSA and 1 mM DTT) containing 40 μM casein. (EXAMPLE: To 211 ml buffer add 8.8 ml 1 mM casein)
Using Multidrop, add 25 μl to columns 1 through 23 of the microtiter plate. Add 25 μl of complete buffer to column 24 (blanks).
Mix reaction gently by tapping (Multidrop addition of casein does a decent job of mixing), stack plates and incubate at room temperature for between 90 and 120 minutes. Assay progression can be tracked in a separate plate if desired. Target 20-30% ATP consumption. Try to avoid exceeding 40% consumption as kinetics might become non-linear due to substrate (ATP) depletion.
Addition of Kinase-Glo Reagents
The Kinase-Glo reagent can be diluted 3-fold with no loss of data quality in this assay. Additionally, since the library contains many colored compounds which will quench the light emitted from the well resulting in a false negative (kinase inhibitors result in less ATP consumption thus more light emitted), the entire reaction is subject to intentional quench to override this effect. This intentional quench is accomplished by the addition of 0.01% trypan blue to the Kinase-Glo reagents. (EXAMPLE: 100 ml 1× Kinase-Glo reagents (prepared according to product insert), 200 ml assay buffer, 7.5 ml 0.4% trypan blue.
Using Multidrop, add 30 μl to all wells of the assay plate.
Count on FUSION plate reader in luminescence mode.

Compared with `O=C(CNc1cccc(Oc2ccc(OC(F)(F)F)cc2)c1)NN=Cc1ccncc1` (mixture of isomers) [Example 77, [3-(4-Trifluoromethoxy-phenoxy)-phenylamino]-acetic acid [1-pyridin-4-yl-meth-(E/Z)-ylidene]-hydrazide], `COc1ccc(Oc2cccc(NCC(=O)NN=Cc3ccncc3)c2)cc1` (mixture of isomers) [Example 81] is lower in Ki: 100 to 1000 nM for the first, 10 to 100 nM for the second. The second binds more tightly here.

Compared with `O=C(CNc1ccccc1)N/N=C/c1c(Cl)cncc1Cl` [Example 2, Phenylamino-acetic acid [1-(3,5-dichloro-pyridin-4-yl)-meth-(E)-ylidene]-hydrazide], `O=C(CNc1cccc(Br)c1)N/N=C/c1c(Cl)cncc1Cl` [Example 6, (3-Bromo-phenylamino)-acetic acid [1-(3,5-dichloro-pyridin-4-yl)-meth-(E)-ylidene]-hydrazide] is higher in Ki: 100 to 1000 nM for the first, 1000 to 10000 nM for the second.

`N#Cc1cccc(NCC(=O)N/N=C/c2c(Cl)cncc2Cl)c1` [Example 3, (3-Cyano-phenylamino)-acetic acid [1-(3,5-dichloro-pyridin-4-yl)-meth-(E)-ylidene]-hydrazide] and `Cc1cccc(NCC(=O)N/N=C/c2c(Cl)cncc2Cl)c1` [Example 8, m-Tolylamino-acetic acid [1-(3,5-dichloro-pyridin-4-yl)-meth-(E)-ylidene]-hydrazide] fall in the same range of Ki: 1000 to 10000 nM for the first, 1000 to 10000 nM for the second.

`O=C(CNc1cccc([N+](=O)[O-])c1)N/N=C/c1c(Cl)cncc1Cl` [Example 7, (3-Nitro-phenylamino)-acetic acid [1-(3,5-dichloro-pyridin-4-yl)-meth-(E)-ylidene]-hydrazide] and `O=C(CNc1cccc(I)c1)N/N=C/c1c(Cl)cncc1Cl` [Example 11, (3-Iodo-phenylamino)-acetic acid [1-(3,5-dichloro-pyridin-4-yl)-meth-(E)-ylidene]-hydrazide] fall in the same range of Ki: 1000 to 10000 nM for the first, 1000 to 10000 nM for the second.

`O=C(CNc1cccc(C(F)(F)F)c1)N/N=C/c1c(Cl)cncc1Cl` [Example 12, (3-Trifluoromethyl-phenylamino)-acetic acid [1-(3,5-dichloro-pyridin-4-yl)-meth-(E)-ylidene]-hydrazide] and `CC(C)c1cccc(NCC(=O)N/N=C/c2c(Cl)cncc2Cl)c1` [Example 16, (3-Isopropyl-phenylamino)-acetic acid [1-(3,5-dichloro-pyridin-4-yl)-meth-(E)-ylidene]-hydrazide] cannot be ordered by Ki: over 10000 nM for the first, over 10000 nM for the second.

`O=C(CNc1ccc(F)cc1)N/N=C/c1c(Cl)cncc1Cl` [Example 14, (4-Fluoro-phenylamino)-acetic acid [1-(3,5-dichloro-pyridin-4-yl)-meth-(E)-ylidene]-hydrazide] and `Cc1ccc(NCC(=O)N/N=C/c2c(Cl)cncc2Cl)cc1` [Example 17, p-Tolylamino-acetic acid [1-(3,5-dichloro-pyridin-4-yl)-meth-(E)-ylidene]-hydrazide] fall in the same range of Ki: 1000 to 10000 nM for the first, 1000 to 10000 nM for the second.

`O=C(CNc1ccc(Cl)cc1)N/N=C/c1c(Cl)cncc1Cl` [Example 18, (4-Chloro-phenylamino)-acetic acid [1-(3,5-dichloro-pyridin-4-yl)-meth-(E)-ylidene]-hydrazide] and `Cc1ccccc1NCC(=O)N/N=C/c1c(Cl)cncc1Cl` [Example 25, o-Tolylamino-acetic acid [1-(3,5-dichloro-pyridin-4-yl)-meth-(E)-ylidene]-hydrazide] fall in the same range of Ki: 1000 to 10000 nM for the first, 1000 to 10000 nM for the second.

`CC(C)Oc1cccc(NCC(=O)N/N=C/c2c(Cl)cncc2Cl)c1` [Example 19, (3-Isopropoxy-phenylamino)-acetic acid [1-(3,5-dichloro-pyridin-4-yl)-meth-(E)-ylidene]-hydrazide] and `CC(=O)Nc1cccc(NCC(=O)N/N=C/c2c(Cl)cncc2Cl)c1` [Example 27, N-(3-{[1-(3,5-Dichloro-pyridin-4-yl)-meth-(E)-ylidene-hydrazinocarbonylmethyl]-amino}-phenyl)-acetamide] fall in the same range of Ki: 1000 to 10000 nM for the first, 1000 to 10000 nM for the second.

`CS(=O)(=O)c1cccc(NCC(=O)N/N=C/c2c(Cl)cncc2Cl)c1` [Example 23, (3-Methanesulfonyl-phenylamino)-acetic acid [1-(3,5-dichloro-pyridin-4-yl)-meth-(E)-ylidene]-hydrazide] and `CS(=O)(=O)Nc1cccc(NCC(=O)N/N=C/c2c(Cl)cncc2Cl)c1` [Example 24] fall in the same range of Ki: 1000 to 10000 nM for the first, 1000 to 10000 nM for the second.

Compared with `CCc1ccccc1NCC(=O)N/N=C/c1c(Cl)cncc1Cl` [Example 26, (2-Ethyl-phenylamino)-acetic acid [1-(3,5-dichloro-pyridin-4-yl)-ylidene]-hydrazide], `O=C(CNc1ccccc1Br)N/N=C/c1c(Cl)cncc1Cl` [Example 29, (2-Bromo-phenylamino)-acetic acid [1-(3,5-dichloro-pyridin-4-yl)-meth-(E)-ylidene]-hydrazide] is higher in Ki: 1000 to 10000 nM for the first, over 10000 nM for the second. The first binds more tightly here.

Compared with `Cc1ccccc1Oc1ccccc1NCC(=O)N/N=C/c1c(Cl)cncc1Cl` [Example 30, (^2-o-Tolyloxy-phenylamino)-acetic acid [1-(3,5-dichloro-pyridin-4-yl)-meth-(E)-ylidene]-hydrazide], `Cc1ccc(Oc2cccc(NCC(=O)N/N=C/c3c(Cl)cncc3Cl)c2)cc1` [Example 35, (3-p-Tolyloxy-phenylamino)-acetic acid [1-(3,5-dichloro-pyridin-4-yl)-meth-(E)-ylidene]-hydrazide] is lower in Ki: over 10000 nM for the first, 1000 to 10000 nM for the second.

`O=C(CNc1cccc(-n2cncn2)c1)N/N=C/c1c(Cl)cncc1Cl` [Example 31, (3-[1,2,4]Triazol-1-yl-phenylamino)-acetic acid [1-(3,5-dichloro-pyridin-4-yl)-meth-(E)-ylidene]-hydrazide] and `O=C(CNc1cccc(-n2cccn2)c1)N/N=C/c1c(Cl)cncc1Cl` [Example 34] cannot be ordered by Ki: over 10000 nM for the first, over 10000 nM for the second.

First: O=C(CNc1cccc(OCCN2CCOCC2)c1)N/N=C/c1c(Cl)cncc1Cl [Example 32, [3-(2-Morpholin-4-yl-ethoxy)-phenylamino]-acetic acid [1-(3,5-dichloro-pyridin-4-yl)-meth-(E)-ylidene]-hydrazide]
Second: O=C(CNc1cccc(C(=O)NCCN2CCOCC2)c1)N/N=C/c1c(Cl)cncc1Cl [Example 33, 3-{[1-(3,5-Dichloro-pyridin-4-yl)-meth-(E)-ylidene-hydrazinocarbonylmethyl]-amino}-N-(2-morpholin-4-yl-ethyl)-benzamide]
The Ki of the first is higher: 1000 to 10000 nM for the first, 10 to 100 nM for the second. The second binds more tightly here.

`O=C(CNc1ccc(Br)cc1)N/N=C/c1ccncc1` [Example 36, (4-Bromo-phenylamino)-acetic acid [1-pyridin-4-yl-meth-(E)-ylidene]-hydrazide] showed a Ki of 1000 to 10000 nM.
